Several values for one entry are separate records, joined by “and”; a condition that tells them apart may be missing. Identical values can stand only once.
How the values were obtained:
HepG2 cells = assay: Apoptosis assay, Annexin V-FITC/PI flow cytometry; type: cell-based, human; conditions: HepG2, 28.0 μM, 24 h; control […]
BEL-7404 = assay: MTT assay, BEL-7404 cells; type: cell-based, human; conditions: 48 h
caspase-9 in HepG2 cells = assay: Activated caspase-9 by flow cytometry; conditions: HepG2, at IC50, 24 h; control […]
Procedure: (§1) After treated, the cells were collected, and suspended in h at 37 °C in 5% CO2 incubator. The cells were harvested
(§2) with annexin V-FITC and PI for 1 h at room temperature cytometer equipped. The results were represented as the
(§3) in the dark and immediately analyzed by flow cytometry. percent change on the activity comparing with the control.
(§4) Caspase- 3, -8 and -9 activity determinations by our previously report [3].

NCI-H460 = assay: MTT assay, NCI-H460 cells; type: cell-based, human; conditions: 48 h
[1] = system: cell cycle regulatory proteins in HepG2 cells; assay: Western blot of cell cycle regulatory proteins; conditions: HepG2, 24 h
Procedure: HepG2 cells were incubated with 2 and 3 at increasing concentrations for 24 h, and the expression of cell cycle regulatory proteins in the S phase was examined through Western blot analysis.

HepG2 = assay: MTT assay, HepG2 cells
caspase-8 in HepG2 cells = assay: Activated caspase-8 by flow cytometry; conditions: HepG2, at IC50, 24 h; control 2.1 %
Procedure: as §1, §2, §3, §4

caspase-3 in HepG2 cells = assay: Activated caspase-3 by flow cytometry; conditions: HepG2, at IC50, 24 h; control 0.0 %
Procedure: as §1, §2, §3, §4

[2] = system: HL-7702 normal liver cell; assay: MTT assay, HL-7702 normal liver cell; type: cell-based; conditions: 48 h, normal liver cell; for inhibitive ratio HL-7702: 20 μmol/L
[3] = MTT, mean ± SD from five independent experiments

Structure (SMILES): COc1cc2ccnc3c2c(c1OC)-c1ccccc1C3=O.COc1cc2ccnc3c2c(c1OC)-c1ccccc1C3=O.COc1cc2ccnc3c2c(c1OC)-c1ccccc1C3=O.ClC(Cl)Cl.ClC(Cl)Cl.ClC(Cl)Cl.[Mn+2].[O-][Cl+3]([O-])([O-])[O-].[O-][Cl+3]([O-])([O-])[O-] [Complex 3, [Mn(LY)3](ClO4)2·3CHCl3]
- percentages of cells undergoing apoptosis and necrosis (HepG2 cells): 35.8%
- inhibitive ratio BEL-7404 (BEL-7404; 20 μmol/L): 35.27±1.15%
- IC50 (BEL-7404; [3]): 36.2 ± 1.03 µM
- proportion of activated caspase-9 cells (caspase-9 in HepG2 cells): 17.0%
- inhibitive ratio NCI-H460 (NCI-H460; 20 μmol/L): 54.93±0.86% and 54.93%
- IC50 (NCI-H460; [3]): 12.9 ± 3.62 µM
- proliferating cell nuclear antigen (PCNA) level [1]: decreased
- expression of Cdk2, p-Cdc25A, p53, p21 and p27 ([1]; increasing concentrations): increased
- inhibitive ratio Hep-G2 (HepG2; 20 μmol/L, 48 h): 62.99±0.43% and 62.99%
- fold increase of cytotoxicity (IC50) comparing with the free LY ligand (HepG2; HepG2 cells): 1.6–3.2 fold
- IC50 (HepG2; read-out: IC50 HepG2, MTT, 48 h, mean ± SD from five independent experiments): 14.5 ± 0.69 µM
- proportion of activated caspase-8 cells (caspase-8 in HepG2 cells): 12.3%
- proportion of activated caspase-3 cells (caspase-3 in HepG2 cells): 18.8%
- inhibitive ratio HL-7702 [2]: 32.9%
- inhibitive ratio HL-7702 ([2]; listed as 3): 32.97±1.14%
- IC50 [2, 3]: 55.4 ± 3.65 µM

— PMC5601738, “Facile total synthesis of lysicamine and the anticancer activities of the Ru^II, Rh^III, Mn^II and Zn^II complexes of lysicamine” (Oncotarget, 2017)
